Key:
ovariectomized rats [1] = experiment: serum test (calcium, magnesium, potassium, sodium, phosphor) of ovariectomized rats fed with the test agents; conditions: Comparison 2 (OVXC): ovariectomized rats, calcium citrate 0.5 g/kg, no liquid
Protocol: (§1) Owing to hormone variation, menopausal females lose their bones fast and suffer from osteoporosis easily. The rats used in the experiment groups, control group, and comparison groups are female Sprague-Dawley rats. The rats are fed with different proportions of the high-magnesium potable water beforehand. Then, the serum and tissue slices of the rats are analyzed.
(§2) The dosages of the high-magnesium concentrated liquid fed to the rats in experiment groups, control group and comparison groups are shown in Table.1. The unit of the dosage is milliliter or gram per kilogram of body weight. The control group is the group of unovariectomized rats. The supply of calcium citrate is to learn the influence of calcium on osteoporosis.

ovariectomized rats [2] = experiment: Micro-CT bone density and trabecula images of ovariectomized rats; assay type: in vivo, female Sprague-Dawley rats; conditions: Comparison Group II, calcium citrate 0.5 g/kg, no liquid
Protocol: as §1, §2
FIGS. 2A-2F are respectively the images of the bone densities of the rats of Experiment Group I, Experiment Group II, Experiment Group III, Control Group, Comparison Group I, and Comparison Group II. FIGS. 3A-3F are respectively the trabecula images of the rats of Experiment Group I, Experiment Group II, Experiment Group III, Control Group, Comparison Group I, and Comparison Group II.

ovariectomized rats [3] = experiment: serum test (ALP, BUN, CRE, GOT, GPT) of ovariectomized rats fed with the test agents; conditions: Comparison 2 (OVXC): ovariectomized rats, calcium citrate 0.5 g/kg, no liquid
Protocol: as §1, §2

**Q.** Which Calcium in serum (ovariectomized rats [1]) does the source give for `O=C([O-])CC(O)(CC(=O)[O-])C(=O)[O-].O=C([O-])CC(O)(CC(=O)[O-])C(=O)[O-].[Ca+2].[Ca+2].[Ca+2]` [Calcium Citrate, calcium citrate] here?
**A.** Its Calcium in serum is 12.4 mg/dL.

**Q.** And the Phosphor in serum (ovariectomized rats [1])?
**A.** Its Phosphor in serum is 8 mg/dL.

**Q.** And the Potassium in serum (ovariectomized rats [1])?
**A.** The Potassium in serum was 5.8 mmol/L.

**Q.** What about the Sodium in serum (ovariectomized rats [1]) of the same molecule?
**A.** The Sodium in serum was 143 mmol/L.

**Q.** And the “bone density (Micro-CT images)” value (ovariectomized rats [2]; FIG. 2F)?
**A.** Its value is “lower bone density”.

**Q.** What about the “trabecula distribution (Micro-CT images)” value (ovariectomized rats [2]; FIG. 3F) of the same molecule?
**A.** Its value is “less compact trabecula distribution”.

**Q.** What about the ALP in serum (ovariectomized rats [3]) of the same molecule?
**A.** Its ALP in serum is 130 U/L.

**Q.** What about the BUN in serum (ovariectomized rats [3]) of the same molecule?
**A.** Its BUN in serum is 17 mg/dL.

**Q.** And the CRE in serum (ovariectomized rats [3])?
**A.** Its CRE in serum is 0.85 mg/dL.

**Q.** What about the GOT in serum (ovariectomized rats [3]) of the same molecule?
**A.** The GOT in serum was 75 U/L.

**Q.** What about the GPT in serum (ovariectomized rats [3]) of the same molecule?
**A.** The GPT in serum was 75 U/L.

Reference: patent US10647591B2, “High-magnesium concentrated liquid” (QUALITY PURE CO., LTD., priority 2016, dated 2020)
